Measurements: publication PMC10502144, “Anti-methicillin-resistant Staphylococcus aureus activity and safety evaluation of 14-O-[(5-ethoxycarbonyl-4,6-dimethylpyrimidine-2-yl) thioacetyl] mutilin (EDT)” (Scientific Reports, 2023)
pIC50: −log10 of the molar value. Converted amounts (≈) assume the structure as drawn. Like-named read-outs stand apart in the source and are kept apart here.

What was measured:
[1] = tested on: MRSA-337371; test: microbe, parasite or virus in culture; type: cell-based, methicillin-resistant Staphylococcus aureus; settings: for MIC: Staphylococcus aureus, MRSA
Method: We performed resistance induction tests on EDT and tiamulin which was used as a referent drug. […] Finally, MRSA was cultured for 30 generations with the same procedure. At the 31st generation, drugs were removed until 40th generation and MICs were determined in each generation.

[2] = tested on: CYP3A4; test: CYP450 inhibition in liver microsomes, probe substrate; type: biochemical; settings: CYP3A4, rat liver microsomes
Method: (§1) Inhibition effects of EDT on cytochrome P450 were evaluated with rat liver microsomes in vitro[43]. Briefly, 12.8 mg EDT was dissolved in methanol and stored at 4 °C as reserve solution. A variety of specific probe substrate (1 μL), EDT solution (1 μL), incubation mixture (193 μL) in which contained glucose-6-phosphate, glucose-6-phosphate dehydrogenase, potassium phosphate buffer, magnesium chloride buffer and PBS buffer, were added into 5 μL liver microsomes to start the reaction at 37 °C. The final concentration of EDT in each group was 0.1, 1, 5, 10, 50, 100 μM. After 30 min, the reaction was terminated by adding the same volume of pre-cooled acetonitrile into the incubation system. After centrifugation for 10 min (8000×g at 4 °C), 10 μL supernatant was removed to analyze the metabolites of specific probe substrate by HPLC. The effects of EDT on CYP450 subtypes were evaluated using formula as follow: (1 − Cn/C0) × 100%, where Cn was substrate metabolite of different concentration of EDT, and C0 was metabolite of blank group.

[3] = target: T1, CYP2E1 (Rattus norvegicus, UniProt P05182); test: as above; type: biochemical; settings: 30 min
T1 construct: from tissue; host or cells: rat liver microsomes
Method: as §1

[4] = tested on: CYP2C9; test: as above; type: biochemical; settings: CYP2C9, rat liver microsomes
Method: as §1

[5] = tested on: CYP2D6; test: as above; type: biochemical; settings: CYP2D6, rat liver microsomes
Method: as §1

[6] = tested on: CYP2A6; test: as above; type: biochemical; settings: CYP2A6, rat liver microsomes
Method: as §1

[7] = target: T2, CYP1A2 (Rattus norvegicus, UniProt P04799); test: as above; type: biochemical; settings: 30 min
T2 construct: from tissue; host or cells: rat liver microsomes
T2 sequence (P04799 1-513): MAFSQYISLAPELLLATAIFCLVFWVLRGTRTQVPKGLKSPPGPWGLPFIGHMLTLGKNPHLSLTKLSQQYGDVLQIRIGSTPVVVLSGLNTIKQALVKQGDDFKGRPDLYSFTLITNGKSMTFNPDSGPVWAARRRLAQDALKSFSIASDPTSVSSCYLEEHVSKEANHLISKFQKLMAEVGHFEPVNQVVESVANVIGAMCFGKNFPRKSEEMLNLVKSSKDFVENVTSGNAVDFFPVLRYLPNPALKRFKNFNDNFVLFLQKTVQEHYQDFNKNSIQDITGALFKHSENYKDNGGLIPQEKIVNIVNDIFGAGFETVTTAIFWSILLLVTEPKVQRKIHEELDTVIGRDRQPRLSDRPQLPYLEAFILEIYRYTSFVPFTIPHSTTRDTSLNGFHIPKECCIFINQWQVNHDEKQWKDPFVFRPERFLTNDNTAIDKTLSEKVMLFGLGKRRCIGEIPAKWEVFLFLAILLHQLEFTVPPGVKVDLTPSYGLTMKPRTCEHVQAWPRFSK
Method: as §1

[8] = tested on: CYP2C19; test: as above; type: biochemical; settings: CYP2C19, rat liver microsomes
Method: as §1

[9] = tested on: Salmonella Typhimurium TA98; test: Ames test, TA98
Method: Before the test, Salmonella Typhimurium (S. Typhimurium) TA97a, TA98, TA100, TA102, TA1535 and Escherichia coli WP2uvrA pKM101 (pKM101) were first checked for their genetic integrity, including biotin dependence, rfa marker (crystal violet), biotin, histidine dependence and presence of the plasmid pKM101 (ampicillin resistance) or pAQ1 (tetracycline resistance). […] The maximum concentration of EDT was also screened using a preliminary experiment.
DMSO (0.1 mL) was directly incorporated into 1.9 mL melted top agar as the vehicle control. […] Each strain (0.1 mL, 6–7 log10 CFU/mL) was added into 2 mL of top agar in which comprised 0.5 mL S9 (10%), serial concentrations of EDT (2000, 400, 80, 16 and 3.2 μg/plate), DMSO or control chemicals for testing with the S9. For testing without S9, 0.5 mL phosphate buffer saline (PBS, pH 7.4) replaced the S9 mix. Then, the obtained top agar was melted, poured onto the surface of […] and swirled to distribute the top agar to all surfaces of medium, followed by incubation at 37 °C for 48 h. The resultant colonies were counted manually as the number of revertant colonies per plate. The experiments were performed in triplicate and the results were expressed as the average ± SD.

T1 sequence (P05182 whole entry): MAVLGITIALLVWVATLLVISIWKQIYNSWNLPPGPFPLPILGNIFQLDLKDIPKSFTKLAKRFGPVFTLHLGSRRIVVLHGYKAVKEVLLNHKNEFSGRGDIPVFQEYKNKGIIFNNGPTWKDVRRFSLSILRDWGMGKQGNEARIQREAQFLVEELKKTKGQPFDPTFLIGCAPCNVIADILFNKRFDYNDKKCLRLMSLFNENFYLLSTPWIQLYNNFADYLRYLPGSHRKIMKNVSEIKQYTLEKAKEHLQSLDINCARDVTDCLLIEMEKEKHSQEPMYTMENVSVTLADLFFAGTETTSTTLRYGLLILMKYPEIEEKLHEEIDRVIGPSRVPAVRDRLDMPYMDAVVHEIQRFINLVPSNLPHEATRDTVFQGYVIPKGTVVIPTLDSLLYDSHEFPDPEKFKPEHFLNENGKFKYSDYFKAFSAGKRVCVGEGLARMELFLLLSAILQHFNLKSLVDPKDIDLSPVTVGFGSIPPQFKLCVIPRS

SMILES: C=CC1(C)CC(OC(=O)CSc2nc(C)c(C(=O)OCC)c(C)n2)C2(C)C(C)CCC3(CCC(=O)C32)C(C)C1O (stereo not shown) [EDT, 14-O-[(5-ethoxycarbonyl-4,6-dimethylpyrimidine-2-yl)thioacetyl] mutilin]
- increase of MIC ([1]; 30 generations under the subinhibitory concentration (1/4 MIC)): fourfold
- MIC ([1]; 24 h, read-out: MIC in the resistance development study, day 1): 0.0313 µg/mL (≈ 0.0546 µM)
- MIC ([1]; 48 h, read-out: MIC in the resistance development study, day 2): 0.0313 µg/mL (≈ 0.0546 µM)
- MIC ([1]; 72 h, read-out: MIC in the resistance development study, day 3): 0.0313 µg/mL (≈ 0.0546 µM)
- MIC ([1]; 96 h, read-out: MIC in the resistance development study, day 4): 0.0313 µg/mL (≈ 0.0546 µM)
- MIC ([1]; 120 h, read-out: MIC in the resistance development study, day 5): 0.0313 µg/mL (≈ 0.0546 µM)
- MIC ([1]; 144 h, read-out: MIC in the resistance development study, day 6): 0.0313 µg/mL (≈ 0.0546 µM)
- MIC ([1]; 168 h, read-out: MIC in the resistance development study, day 7): 0.0313 µg/mL (≈ 0.0546 µM)
- MIC ([1]; 192 h, read-out: MIC in the resistance development study, day 8): 0.0313 µg/mL (≈ 0.0546 µM)
- MIC ([1]; 216 h, read-out: MIC in the resistance development study, day 9): 0.0313 µg/mL (≈ 0.0546 µM)
- MIC ([1]; 240 h, read-out: MIC in the resistance development study, day 10): 0.0313 µg/mL (≈ 0.0546 µM)
- MIC ([1]; 264 h, read-out: MIC in the resistance development study, day 11): 0.0313 µg/mL (≈ 0.0546 µM)
- MIC ([1]; 288 h, read-out: MIC in the resistance development study, day 12): 0.0625 µg/mL (≈ 0.109 µM)
- MIC ([1]; 312 h, read-out: MIC in the resistance development study, day 13): 0.0625 µg/mL (≈ 0.109 µM)
- MIC ([1]; 336 h, read-out: MIC in the resistance development study, day 14): 0.0313 µg/mL (≈ 0.0546 µM)
- MIC ([1]; 360 h, read-out: MIC in the resistance development study, day 15): 0.0313 µg/mL (≈ 0.0546 µM)
- MIC ([1]; 384 h, read-out: MIC in the resistance development study, day 16): 0.0313 µg/mL (≈ 0.0546 µM)
- MIC ([1]; 408 h, read-out: MIC in the resistance development study, day 17): 0.0625 µg/mL (≈ 0.109 µM)
- MIC ([1]; 432 h, read-out: MIC in the resistance development study, day 18): 0.0625 µg/mL (≈ 0.109 µM)
- MIC ([1]; 456 h, read-out: MIC in the resistance development study, day 19): 0.0625 µg/mL (≈ 0.109 µM)
- MIC ([1]; 480 h, read-out: MIC in the resistance development study, day 20): 0.125 µg/mL (≈ 0.218 µM)
- MIC ([1]; 504 h, read-out: MIC in the resistance development study, day 21): 0.125 µg/mL (≈ 0.218 µM)
- MIC ([1]; 528 h, read-out: MIC in the resistance development study, day 22): 0.125 µg/mL (≈ 0.218 µM)
- MIC ([1]; 552 h, read-out: MIC in the resistance development study, day 23): 0.125 µg/mL (≈ 0.218 µM)
- MIC ([1]; 576 h, read-out: MIC in the resistance development study, day 24): 0.125 µg/mL (≈ 0.218 µM)
- MIC ([1]; 600 h, read-out: MIC in the resistance development study, day 25): 0.125 µg/mL (≈ 0.218 µM)
- MIC ([1]; 624 h, read-out: MIC in the resistance development study, day 26): 0.125 µg/mL (≈ 0.218 µM)
- MIC ([1]; 648 h, read-out: MIC in the resistance development study, day 27): 0.125 µg/mL (≈ 0.218 µM)
- MIC ([1]; 672 h, read-out: MIC in the resistance development study, day 28): 0.125 µg/mL (≈ 0.218 µM)
- MIC ([1]; 696 h, read-out: MIC in the resistance development study, day 29): 0.125 µg/mL (≈ 0.218 µM)
- MIC ([1]; MRSA-337371, MIC used to set 1×-8× MIC in the PAE test): 0.0313 µg/mL (≈ 0.0546 µM)
- MIC ([1]; read-out: MIC in the resistance development study, day 30): 0.125 µg/mL (≈ 0.218 µM)
- MIC ([1]; read-out: MIC in the resistance development study, day 31, drugs removed): 0.125 µg/mL (≈ 0.218 µM)
- MIC ([1]; read-out: MIC in the resistance development study, day 32, drugs removed): 0.125 µg/mL (≈ 0.218 µM)
- MIC ([1]; read-out: MIC in the resistance development study, day 33, drugs removed): 0.0625 µg/mL (≈ 0.109 µM)
- MIC ([1]; read-out: MIC in the resistance development study, day 34, drugs removed): 0.0625 µg/mL (≈ 0.109 µM)
- MIC ([1]; read-out: MIC in the resistance development study, day 35, drugs removed): 0.0313 µg/mL (≈ 0.0546 µM)
- MIC ([1]; read-out: MIC in the resistance development study, day 36, drugs removed): 0.0313 µg/mL (≈ 0.0546 µM)
- MIC ([1]; read-out: MIC in the resistance development study, day 37, drugs removed): 0.0313 µg/mL (≈ 0.0546 µM)
- MIC ([1]; read-out: MIC in the resistance development study, day 38, drugs removed): 0.0313 µg/mL (≈ 0.0546 µM)
- MIC ([1]; read-out: MIC in the resistance development study, day 39, drugs removed): 0.0313 µg/mL (≈ 0.0546 µM)
- MIC ([1]; read-out: MIC in the resistance development study, day 40, drugs removed): 0.0313 µg/mL (≈ 0.0546 µM)
- sensitivity of MRSA after removing drugs ([1]; after removing drugs and culturing for additional 10 generations): recovered the initial sensitivity
- increase in the MIC values ([1]; at 22 generations): fourfold
- IC50 at 30 min [2]: 9.25 µM
- pIC50 [3]: 4.05
- IC50 at 30 min [4]: > 100 µM
- IC50 at 30 min [5]: > 100 µM
- IC50 at 30 min [6]: > 100 µM
- pIC50 [7]: < 4.00
- IC50 at 30 min [8]: > 100 µM
- number of revertant colonies per plate ([9]; TA98, 3.2 μg/plate, +S9): 22.00 ± 2.00
- number of revertant colonies per plate ([9]; TA98, 3.2 μg/plate, −S9): 21.67 ± 1.67
- number of revertant colonies per plate ([9]; TA98, 16 μg/plate, +S9): 24.00 ± 4.00
- number of revertant colonies per plate ([9]; TA98, 16 μg/plate, −S9): 23.33 ± 2.67
- number of revertant colonies per plate ([9]; TA98, 80 μg/plate, +S9): 19.00 ± 3.00
- number of revertant colonies per plate ([9]; TA98, 80 μg/plate, −S9): 23.33 ± 2.67
- number of revertant colonies per plate ([9]; TA98, 400 μg/plate, +S9): 25.00 ± 4.00
- number of revertant colonies per plate ([9]; TA98, 400 μg/plate, −S9): 26.67 ± 3.33
- number of revertant colonies per plate ([9]; TA98, 2000 μg/plate, +S9): 29.67 ± 2.33
- number of revertant colonies per plate ([9]; TA98, 2000 μg/plate, −S9): 32.33 ± 3.67
